The values that follow come from patent US11059833B2, “BCKDK inhibitors” (Pfizer Inc., priority 2019, dated 2021).

Where two headings read alike, the source gives them in different places.

One assay has as its target T1, human BCKDK (Homo sapiens, UniProt O14874).
T1 construct: human BCKDK (residues 31-412 of the protein pre-processing); 6xHis (N, cleaved yes); MBP (N, cleaved yes); TEV protease site (ENLYFQG) (N, cleaved yes); made in house; host or cells: BL21(DE3) E. coli, co-expressed with GroEL-GroES
Briefly: In Vitro FRET (TR-FRET) BCKDK activity assay, phosphorylation of BCKDHE1α-E2 fusion substrate. The class given is biochemical. As for the experimental part: For lipoylation, fusion substrate was incubated with LpIA at a 10:1 (substrate:LplA) ratio in 20 mM sodium phosphate pH 7.4, 6 mM MgCl2, 4 mM ATP, 2 mM DTT, 3 mM DL-6,8-thioctic acid at 37° C.
BCKDK activity was monitored by phosphorylation of a HIS-tagged fusion BCKDHE1α-E2 substrate protein as described above and was detected using a time resolved-fluorescence resonance energy transfer (TR-FRET) assay system. Compounds were spotted into a 384 well plate, and purified human BCKDK protein was added to the plated compound. […] The reaction was terminated with EDTA. […] Signal intensity was proportional to the level of BCKDK-mediated substrate phosphorylation. Reactions were normalized to zero percent effect with DMSO and one hundred percent effect with 600 μM Radicicol, a known BCKDK inhibitor. IC50 curves were generated using ABASE software (IDBS, Boston Mass.).

For assay [1], the system named is phosphorylation of S293 BCKDH. Briefly: Phospho BCKDHA AlphaLISA in human skeletal myocytes. Type of assay: cell-based. Particulars: 1 h, 60 minutes, geometric mean. As to the method:
Prior to conducting the assay, BCKDH antibodies (Bethyl A303-790A) were biotinylated using the ChromaLink™ One-Shot Antibody Biotinylation Kit B-9007-009K and phospho Ser293 BCKDHA antibodies (Bethyl A304-672A) were directly conjugated to AlphaLISA Acceptor Beads (custom conjugation performed by Perkin Elmer's Lance/Delfia Custom Services, Boston Mass.). Human skeletal myocytes (Gibco A11440) were plated in a 384 well plate at a density of 7500 live cells/well and grown in skeletal muscle growth media containing the media supplement and chick embryo extract (Promocell C-23060 and C-23160, MP92850145). After overnight incubation, media was removed, and BCKDK inhibitors were added in assay media (growth media diluted 10-fold in PBS). After 60 minutes, the media was removed, the cells were washed with PBS and lysed in 10 μL of buffer (Cell Signaling #9803) containing 2 nM biotinylated total BCKDH antibodies. Samples were incubated for 60 minutes, and 5 μL of AlphaLISA acceptor beads conjugated with phospho-S293 BCKDH antibodies were added 1× Alpha buffer. After a 60 minute incubation, 5 μL streptavidin donor beads (40 μg/μL) beads were added in 1× Alpha buffer while protecting from light. Fluorescence was emitted when the phospho and total BCKDH antibodies were within proximity, signifying phosphorylation of S293 BCKDH. Fluorescence was monitored on the Envision plate reader. The zero percent effect was determined from DMSO treatment and the maximal effect was assessed relative to the BCKDK inhibitor BT2. IC50 curves were generated using ActivityBase software (IDBS, Boston Mass.).

Assay [2] concerns Dahl salt sensitive male rats. Nature of the assay: Heart failure rat model (high salt diet). The class given is in vivo. The conditions noted are these: 100 mg/kg PO once daily. As for the experimental part:
Dahl salt sensitive male rats (Charles River strain SS/JrHsdMcwiCrl) were fed control diet or 6% high salt diet (iD03121701-AIN-76a rodent diet with added 6% NaCl) for 21 weeks in total. At week 5, the high salt diet-fed rats were dosed PO with 100 mg/kg BT2 or vehicle once daily for the last 16 weeks of study. Echocardiography was performed at week 18 (myocardial performance index (MPI): control diet 0.567±0.034, high salt+vehicle 0.810±0.039, high salt+BT2 0.660±0.030; Isovolumic relaxation time (IVRT): control diet 23.154±0.60 ms, high salt+vehicle 36.507±2.20 ms, high salt+BT2 31.605±1.78 ms; Intraventricular septal thickness at diastole (IVDd): control 2.03±0.088 mm, high salt+vehicle 2.877±0.110 mm, high salt+BT2 2.489±0.089 mm). NT-pro-BNP (MSD K153JKD; control […], high salt+vehicle 1003.0±200.8 μg/mL, high salt+BT2 503.4±84.96 μg/mL), and proANP (MSD K153MBD; control 33.50±5.4 ng/mL, high salt 65.19±8.3 ng/mL, high salt+BT2 38.81±7.0 ng/mL) levels were measured in plasma using MSD assays at the terminal time point. Heart weights were measured at euthanasia and normalized to tibia length (heart/tibia control 0.033±0.001 g/mm; high salt+vehicle 0.042±0.001 g/mm, high salt+BT2 0.038±0.001 g/mm).

Assay [3] concerns Mice fed 60% high fat diet. Nature of the assay: Diabetic animal model: fasting glucose and oral glucose tolerance test. Type of assay: in vivo. The conditions noted are these: for Area under the curve for the glucose tolerance test as percent of vehicle treated group: 1 g/kg dextrose; for fasting plasma glucose levels: high fat diet mice, mean±SEM. As for the experimental part:
Blood glucose was measured 15, 30, 60, and 120 minutes after the gavage, and the data were plotted and analyzed as area under the curve using GraphPad Prism 8.0 (GraphPad Software, La Jolla, Calif.). Blood was concomitantly collected in EDTA tubes at the 0, 15 and 30 minute time points, spun down at 10K RPM for 10 minutes. […] Area under the curve for the glucose tolerance test as percent of vehicle treated group was 100.0±3 (vehicle, n=29), 100±4 (20 mg/kg, n=18), 87±2 (60 mg/kg, n=30), 78±2 (180 mg/kg, n=16).

[4] abbreviates: purified human BCKDK, 15 μM ATP, geometric mean, read-out: In Vitro FRET IC50.

In general, IC50 refers to the concentration needed to halve the response being measured. With `O=C(O)c1sc2cc(Cl)ccc2c1Cl` [BT2, 3,6-dichloro-1-benzothiophene-2-carboxylic acid], the results for the 50% inhibitory concentration (IC50) (at human BCKDK; in assay [1]) were 1300 nM and 4500 nM, respectively. Moreover, the “heart weight normalized to tibia length (heart/tibia)” value in assay [2] (at euthanasia (high salt+vehicle 0.042±0.001, control 0.033±0.001)) came to 0.038±0.001 g/mm. The “myocardial performance index (MPI)” value in assay [2] (echocardiography at week 18 (high salt+vehicle 0.810±0.039, control diet 0.567±0.034)) is given as 0.660±0.030. For the same compound, the “Intraventricular septal thickness at diastole (IVDd)” value in assay [2] (echocardiography at week 18 (high salt+vehicle 2.877±0.110, control 2.03±0.088)) came out at 2.489±0.089 mm. For the same compound, the “Isovolumic relaxation time (IVRT)” value in assay [2] (echocardiography at week 18 (high salt+vehicle 36.507±2.20, control diet 23.154±0.60)) was 31.605 ± 1.78 ms. Moreover, the “proANP level in plasma” value in assay [2] (terminal time point (high salt 65.19±8.3, control 33.50±5.4)) came to 38.81 ± 7.0 ng/mL. The “NT-pro-BNP level in plasma” value in assay [2] (terminal time point (high salt+vehicle 1003.0±200.8, control 294.9±26.04)) came out at 503.4 ± 84.96 µg/mL.
Regarding `O=C(O)c1sc2cc(F)ccc2c1Cl` [BT2F, 3-chloro-6-fluoro-1-benzothiophene-2-carboxylic acid, reference compound], the IC50 on human BCKDK (setting [4]) is 810 nM.
Consider `O=C(O)c1sc2cc(F)sc2c1Cl` [Example 1, 3-Chloro-5-fluorothieno[3,2-b]thiophene-2-carboxylic acid], for which, in assay [1], the IC50 came out at 720 nM. The “Area under the curve for the glucose tolerance test as percent of vehicle treated group” value is listed as 100±4% of vehicle treated group in assay [3] (20 mg/kg PO, n=18 (vehicle 100.0±3)); 87±2% of vehicle treated group in assay [3] (60 mg/kg PO, n=30 (vehicle 100.0±3)); 78±2% of vehicle treated group in assay [3] (180 mg/kg PO, n=16 (vehicle 100.0±3)). Further, the “fasting plasma glucose levels” value in assay [3] (20 mg/kg PO, n=18 (vehicle 237±5)) amounted to 230 ± 8 mg/dL; in assay [3] (60 mg/kg PO, n=40 (vehicle 237±5)) it was 221 ± 4 mg/dL; in assay [3] (180 mg/kg PO, n=19 (vehicle 237±5)), 206 ± 5 mg/dL.
Turning to `O=C(O)c1sc2cc(F)sc2c1Br` [Example 2, 3-Bromo-5-fluorothieno[3,2-b]thiophene-2-carboxylic acid], the figures for the IC50 (at human BCKDK (setting [4]); in assay [1]) were 120 nM and 1500 nM, respectively.
Regarding `O=C(O)c1sc2cc(F)sc2c1C(F)F` [Example 3, 3-(Difluoromethyl)-5-fluorothieno[3,2-b]thiophene-2-carboxylic acid], the IC50 at human BCKDK (setting [4]) was found to be 65 nM; in assay [1] it was 1800 nM.
Take `O=C(O)c1cc2sc(F)c(F)c2s1` [Example 4, 5,6-Difluorothieno[3,2-b]thiophene-2-carboxylic acid]: the IC50 was 58 nM on human BCKDK (setting [4]) and 390 nM in assay [1].
Taken in the same sequence, the figures for `O=C(O)c1sc2cc(F)sc2c1F` [Example 5, 3,5-Difluorothieno[3,2-b]thiophene-2-carboxylic acid] were 140 nM and 410 nM.
In the case of `Cc1c(F)sc2cc(C(=O)O)sc12` [Example 6, 5-fluoro-6-methylthieno[3,2-b]thiophene-2-carboxylic acid], the values for the concentration for half-maximal inhibition (IC50) (at human BCKDK (setting [4]); in assay [1]) were 230 nM and 4200 nM, respectively.
Taken in the same sequence, the figures for `O=C(O)c1sc2cc(Cl)sc2c1F` [Example 7, 5-chloro-3-fluorothieno[3,2-b]thiophene-2-carboxylic acid] were 260 nM and 1100 nM.
Regarding `O=C(O)c1sc2c(F)c(F)sc2c1Cl` [Example 8, 3-chloro-5,6-difluorothieno[3,2-b]thiophene-2-carboxylic acid], the IC50 at human BCKDK (setting [4]) was determined as 260 nM; in assay [1] it was 1800 nM.
Take `Cc1c(C(=O)O)sc2cc(F)sc12` [Example 9, 5-fluoro-3-methylthieno[3,2-b]thiophene-2-carboxylic acid]: the IC50 amounted to 280 nM at human BCKDK (setting [4]) and 1600 nM in assay [1].
Taken in the same sequence, the figures for `O=C(O)c1cc2sc(F)c(Cl)c2s1` [Example 10, 6-chloro-5-fluorothieno[3,2-b]thiophene-2-carboxylic acid] were 330 nM and 3400 nM.
For the compound `O=C(O)c1sc2cc(Cl)sc2c1C(F)F` [Example 11, 5-chloro-3-(difluoromethyl)thieno[3,2-b]thiophene-2-carboxylic acid], the half-maximal inhibitory concentration (IC50) at human BCKDK (setting [4]) was 370 nM; in assay [1] it was 2200 nM.
Consider `O=C(O)c1cc2sc(Cl)c(F)c2s1` [Example 12, 5-chloro-6-fluorothieno[3,2-b]thiophene-2-carboxylic acid], for which the values for the concentration for half-maximal inhibition (IC50) (on human BCKDK (setting [4]); in assay [1]) were 400 nM and 1200 nM, respectively.
Regarding `O=C(O)c1sc2c(F)c(Cl)sc2c1F` [Example 13, 5-chloro-3,6-difluorothieno[3,2-b]thiophene-2-carboxylic acid], the IC50 on human BCKDK (setting [4]) came to 470 nM; in assay [1], 1900 nM.
On to `Cc1c(C(=O)O)sc2cc(Cl)sc12` [Example 14, 5-chloro-3-methylthieno[3,2-b]thiophene-2-carboxylic acid], for which, at human BCKDK (setting [4]), the IC50 was 800 nM.
Take `O=C(O)c1sc2cc(Cl)sc2c1Br` [Example 15, ammonium 3-bromo-5-chlorothieno[3,2-b]thiophene-2-carboxylate]: the IC50 at human BCKDK (setting [4]) worked out at 840 nM; in assay [1], 2800 nM.
Taken in the same sequence, the figures for `CCc1c(C(=O)O)sc2cc(Cl)sc12` [Example 16, 5-chloro-3-ethylthieno[3,2-b]thiophene-2-carboxylic acid] were 880 nM and 3600 nM.
